Assay results from patent US12233073B2, “Skin care formulations and skin cancer treatment” (Regents of the University of Minnesota, priority 2017, dated 2025).
Like-named read-outs stand apart in the source and are kept apart here.

How the values were obtained:
[1] = test system: skin of SKH-1 hairless mice; assay: H&E staining of skin of mice treated with anti-sUV agents; format: in vivo, mouse; settings: solar UV-exposed groups G13-G24
Excerpt: FIG. 40 is a photograph comparing H&E (hematoxylin and eosin) stained tissue sample of mice exposed to solar ultraviolet and treated with anti-sUV agents and mice unexposed to solar ultraviolet. H&E staining can show skin damage (see TABLE 5 for group identification). […] None of the compounds in the absence of solar UV caused any damage and none had any adverse effect on skin thickness. G11 and G12 are the positive controls, being groups treated with solar UV without or with vehicle (cream).

[2] = test system: SSL-induced skin tumors in SKH-1 hairless mice
Procedure: The effectiveness of different candidate compounds in preventing sUV-induced cancer was evaluated. SKH-1 hairless mice (Charles River, Burlington, Massachusetts) were treated with formulations including one or more candidate compounds and exposed to SSL (solar simulated light). Female mice aged 5-6 weeks at the beginning of the study were used. The mice were exposed to SSL three times a week for 15 weeks from the beginning of the study. At week 1, the SSL dose included 37 kJ/m^2 UVA and 1.8 kJ/m^2 UVB three times per week. […] At week 6, the dose included 60 kJ/m^2 UVA and 2.9 kJ/m^2 UVB and this dose was maintained until week 15 at which time SSL exposure was stopped. Each mouse received a topical application (on the dorsal skin surface posterior to the base of the neck and anterior to the base of the tail) of one or more candidate compounds in a base cream one hour before SSL exposure. 15 weeks onwards, the mice were no longer exposed to SSL but the topical application of cream with sunscreen compounds was continued until 30 weeks. Control mice received topical application of cream with sunscreen compounds but no SSL.
Tumors were counted by sight. The dimensions of each tumor were measured using a digital caliper. Tumor volume (mm^3) was determined as (length×width^2)×0.52, where the length and width were measured in mm. […] Average or total tumor volumes were compared between vehicle (cream)-treated mice exposed to SSL and compound in cream-treated mice exposed to SSL.

[3] = test system: Ki-67; assay: Ki-67 immunohistological staining of skin of mice treated with anti-sUV agents; format: in vivo, mouse; settings: solar UV-exposed groups
Excerpt: FIG. 41 is a photograph comparing Ki-67 immunohistological-stained tissue samples of mice exposed to solar ultraviolet and treated with anti-sUV agents and mice unexposed to solar ultraviolet.

[4] = following one hour of exposure to sunlight; cited from earlier work
[5] = test system: antioxidant response element (ARE) pathway; assay: Activation of the antioxidant response element (ARE) pathway; format: cell-based
Procedure: (§1) Higher elastin and collagen activity is indicative of anti-wrinkling or anti-aging effects. Activation of the antioxidant response element (ARE) pathway was also evaluated. The NF-E2-related factor (Nrf2) is a critical transcription factor in oxidative stress signaling. Nrf2 binds to the ARE and serves as a master regulator in cellular defense pathways. The ARE pathway mediates the transcriptional induction of a battery of genes that help to protect the cells against oxidative damage. Activation of the ARE promoter leads to more endogenous antioxidants and cell detoxification.

[6] = test system: nuclear factor kappa B (NF-κB) pathway; assay: Cell-based assay of the nuclear factor kappa B (NF-κB) pathway
Procedure: The effect of adding anti-aging and/or anti-wrinkling compounds to the skin care formulation of EXAMPLE 18 on nuclear factor kappa B (NF-κB) mediated-inflammation was evaluated.
A cell-based assay was performed to determine the effective of each of these compounds. The assay involved the effect of each compound on the nuclear factor kappa B (NF-κB) pathway. The inhibition of NF-κB is indicative of a protective effect against aging and wrinkling.

[7] = test system: UV-induced ROS; assay: Inhibition of the production of UV-induced reactive oxygen species (ROS); format: cell-based; settings: final dose 10 μg/ml; read-out: % inhibition of UV-induced ROS
Procedure: The effect of the compounds of EXAMPLE 20 on inhibition of the production of reactive oxygen species (ROS), which can damage skin cells, was evaluated.

[8] = test system: collagen 1A; assay: Induction of collagen 1A; format: cell-based
Procedure: as §1

[9] = test system: elastin; assay: Induction of elastin; format: cell-based
Procedure: as §1

[10] = SSL-exposed, compound in cream, percent per TABLE 5
[11] = SSL-exposed, compound in cream, percent per TABLE 5, 15 mice
[12] = female, SKH-1 hairless, mouse, in vivo, 30 weeks
[13] = no SSL exposure, compound in cream, percent per TABLE 5

COc1ccc(C(=O)CC(=O)c2ccc(C(C)(C)C)cc2)cc1 [Avobenzone]
H&E staining: epidermal thickening and skin damage [1]: epidermal thickening and skin damage | % Effective Protection (% reduction in tumor volume vs SSL with cream only) [2, 10]: 72.8% | % Mice with tumor [2, 11]: 93.3% | % Mortality [2, 11]: 6.7% | Average volume of tumors [2, 11]: 46.1 mm^3 | Avg. no. of tumors [2, 11]: 3.7 | Number of dead mice [2, 11]: 1 | Total no. of tumors [2, 11]: 55 | Total volume of tumors [2, 11]: 691.5 mm^3 | % Mice with tumor [2, 12]: 0% | % Mortality/Number of dead mice [2, 13]: 0 | Total/Average volume of tumors [2, 13]: 0 | Total/Avg. no. of tumors [2, 13]: 0 | Ki-67 staining: abnormal cell proliferation [3]: extensive abnormal proliferation | change in UV absorbance [4]: approximately 36%

O=c1c(O)c(-c2ccc(O)cc2)oc2c(O)c(O)cc(O)c12 [HI-12, herbacetin]
fold induction at 10 µg/mL ([5]; final dose 10 μg/ml): < 1.3 | fold induction at 50 µg/mL ([5]; final dose 50 μg/ml): < 1.3 | fold induction at 100 µg/mL ([5]; final dose 100 μg/ml): < 1.3 | Rating (ARE) ([5]; third rating in cell): none | % inhibition of NF-κB ([6]; final dose 10 μg/ml): none | % inhibition of NF-κB ([6]; final dose 50 μg/ml): none | inhibition at 100 µg/mL ([6]; final dose 100 μg/ml, read-out: % inhibition of NF-κB): 49% | Rating (inhibition of NF-κB) ([6]; one rating per compound): none | inhibition at 10 µg/mL [7]: ~50% | fold induction at 10 µg/mL ([8]; final dose 10 μg/ml): < 1.3 | fold induction at 50 µg/mL ([8]; final dose 50 μg/ml): < 1.3 | fold induction at 100 µg/mL ([8]; final dose 100 μg/ml): < 1.3 | Rating (Collagen 1A) ([8]; second rating in cell): none | fold induction at 10 µg/mL ([9]; final dose 10 μg/ml): 2 | fold induction at 50 µg/mL ([9]; final dose 50 μg/ml): < 1.3 | fold induction at 100 µg/mL ([9]; final dose 100 μg/ml): 2

CC1CC(OC(=O)c2ccccc2O)CC(C)(C)C1 (stereo not drawn) [Homosalate]
H&E staining: epidermal thickening and skin damage [1]: intense damage | % Effective Protection (% reduction in tumor volume vs SSL with cream only) [2, 10]: 83.6% | % Mice with tumor [2, 11]: 80% | % Mortality [2, 11]: 6.7% | Average volume of tumors [2, 11]: 27.7 mm^3 | Avg. no. of tumors [2, 11]: 2.6 | Number of dead mice [2, 11]: 1 | Total no. of tumors [2, 11]: 39 | Total volume of tumors [2, 11]: 415.7 mm^3 | % Mice with tumor [2, 12]: 0% | % Mortality/Number of dead mice [2, 13]: 0 | Total/Average volume of tumors [2, 13]: 0 | Total/Avg. no. of tumors [2, 13]: 0 | Ki-67 staining: abnormal cell proliferation [3]: extensive abnormal proliferation

CCCCC(CC)COC(=O)C=Cc1ccc(OC)cc1 (stereo not drawn) [Octinoxate]
H&E staining: epidermal thickening and skin damage [1]: epidermal thickening but less damage | % Effective Protection (% reduction in tumor volume vs SSL with cream only) [2, 10]: 93.9% | % Mice with tumor [2, 11]: 80% | % Mortality [2, 11]: 13.3% | Average volume of tumors [2, 11]: 10.4 mm^3 | Avg. no. of tumors [2, 11]: 1.4 | Number of dead mice [2, 11]: 2 | Total no. of tumors [2, 11]: 21 | Total volume of tumors [2, 11]: 156.02 mm^3 | % Mice with tumor [2, 12]: 0% | % Mortality/Number of dead mice [2, 13]: 0 | Total/Average volume of tumors [2, 13]: 0 | Total/Avg. no. of tumors [2, 13]: 0

CCCCC(CC)COC(=O)c1ccccc1O (stereo not drawn) [Octisalate]
H&E staining: epidermal thickening and skin damage [1]: epidermal thickening and skin damage | % Effective Protection (% reduction in tumor volume vs SSL with cream only) [2, 10]: 70.1% | % Mice with tumor [2, 11]: 100% | % Mortality [2, 11]: 66.7% | Average volume of tumors [2, 11]: 50.6 mm^3 | Avg. no. of tumors [2, 11]: 2.6 | Number of dead mice [2, 11]: 10 | Total no. of tumors [2, 11]: 39 | Total volume of tumors [2, 11]: 758.4 mm^3 | % Mice with tumor [2, 12]: 0% | % Mortality/Number of dead mice [2, 13]: 0 | Total/Average volume of tumors [2, 13]: 0 | Total/Avg. no. of tumors [2, 13]: 0

CCCCC(CC)COC(=O)C(C#N)=C(c1ccccc1)c1ccccc1 (stereo not drawn) [Octocrylene]
H&E staining: epidermal thickening and skin damage [1]: epidermal thickening and skin damage | % Effective Protection (% reduction in tumor volume vs SSL with cream only) [2, 10]: 90.3% | % Mice with tumor [2, 11]: 66.7% | % Mortality [2, 11]: 0/0% | Average volume of tumors [2, 11]: 16.5 mm^3 | Avg. no. of tumors [2, 11]: 1.7 | Number of dead mice [2, 11]: 0/0 | Total no. of tumors [2, 11]: 25 | Total volume of tumors [2, 11]: 246.7 mm^3 | % Mice with tumor [2, 12]: 0% | % Mortality/Number of dead mice [2, 13]: 0 | Total/Average volume of tumors [2, 13]: 0 | Total/Avg. no. of tumors [2, 13]: 0

COc1ccc(C(=O)c2ccccc2)c(O)c1 [Oxybenzone]
H&E staining: epidermal thickening and skin damage [1]: epidermal thickening but less damage | % Effective Protection (% reduction in tumor volume vs SSL with cream only) [2, 10]: 91.2% | % Mice with tumor [2, 11]: 86.7% | % Mortality [2, 11]: 6.7% | Average volume of tumors [2, 11]: 14.3 mm^3 | Avg. no. of tumors [2, 11]: 2.3 | Number of dead mice [2, 11]: 1 | Total no. of tumors [2, 11]: 35 | Total volume of tumors [2, 11]: 213.7 mm^3 | % Mice with tumor [2, 12]: 0% | % Mortality/Number of dead mice [2, 13]: 0 | Total/Average volume of tumors [2, 13]: 0 | Total/Avg. no. of tumors [2, 13]: 0

[O]=[Zn] [Zinc oxide]
H&E staining: epidermal thickening and skin damage [1]: most protected | % Mice with tumor [2, 11]: 6.7% | % Mortality [2, 11]: 0/0% | Average volume of tumors [2, 11]: 0.8 mm^3 | Avg. no. of tumors [2, 11]: 0.13 | Number of dead mice [2, 11]: 0/0 | Total no. of tumors [2, 11]: 2 | Total volume of tumors [2, 11]: 11.2 mm^3 | % Mortality/Number of dead mice [2, 13]: 0 | Total/Average volume of tumors [2, 13]: 0 | Total/Avg. no. of tumors [2, 13]: 0 | % Mice with tumor ([2]; no SSL exposure, compound in cream, percent per TABLE 5, 30 weeks): 0% | Ki-67 staining: abnormal cell proliferation [3]: least amount of abnormal proliferation

Titanium dioxide
H&E staining: epidermal thickening and skin damage [1]: epidermal thickening and skin damage | % Effective Protection (% reduction in tumor volume vs SSL with cream only) [2, 10]: 89.2% | % Mice with tumor [2, 11]: 100% | % Mortality [2, 11]: 13.3% | Average volume of tumors [2, 11]: 18.4 mm^3 | Avg. no. of tumors [2, 11]: 2.6 | Number of dead mice [2, 11]: 2 | Total no. of tumors [2, 11]: 39 | Total volume of tumors [2, 11]: 275.6 mm^3 | % Mice with tumor ([2]; mouse, in vivo): 0% | % Mortality/Number of dead mice [2, 13]: 0 | Total/Average volume of tumors [2, 13]: 0 | Total/Avg. no. of tumors [2, 13]: 0
